Consider one molecule from ChEMBL document CHEMBL1121773, “Interaction of aromatic dyes with the coenzyme A binding site of choline acetyltransferase” (J Med Chem, 1981).

The experiment relates to Choline O-acetyltransferase (squid). As to the kind of experiment: Compound was tested for inhibition of choline acetyltransferase isolated from squid head ganglia; No inhibition at limit of solubility (4.4*10e-3 M).

For `O=S(=O)(O)c1ccc2ccccc2c1Nc1ccccc1`, the Ki result was “No inhibition at limit of solubility”.
